The record followed here is US20140170199A1, “PARASITICIDAL COMBINATION COMPRISING INDOXACARB AND DELTAMETHRIN” (priority 2011, published 2014).

Assay [1] concerns voltage-dependent sodium channels expressed in DUM neurons. The experiment in a line: Whole-cell patch-clamp of voltage-dependent inward sodium current in isolated DUM neuron cell bodies. Format: cell-based, cockroaches (Periplaneta Americana). Here is the method: Experiments were performed on dorsal unpaired median (DUM) neuron cell bodies (Grolleau and Lapied (2000), J. Exp. Biol., 203, 1633-1648) isolated from the dorsal midline of the terminal abdominal ganglion of adult male cockroaches (Periplaneta Americana) taken from a stock colony, maintained at 29° C. with a photoperiod of 12 hours light:12 hours dark.
Adult male cockroaches were immobilised dorsal-side up on a dissection dish. The dorsal cuticle, gut and some dorso-longitudinal muscles were removed, to allow access to the ventral nerve cord. The abdominal nerve cord and its terminal abdominal ganglion (TAG), carefully dissected under a binocular microscope, were placed in normal saline. Isolation of adult DUM neuron cell bodies was performed under sterile conditions using enzymatic digestion and mechanical dissociation of the median part of the TAG (Lapied et al. (1989), J. Exp. Biol., 144, 535-549).
Ganglia were excised and incubated for 35 min at 29° C. in cockroach saline supplemented with 1.5 mg/ml collagenase (type I, Worthington, Lakewood, N.J.). After thoroughly washing off the enzyme, ganglia were mechanically dissociated by gentle repeated suctions through fire-polished Pasteur pipettes. Then, the isolated DUM neuron cell bodies were maintained at 29° C. for 24 hours before experiments are carried out.
Isolated neuronal cell bodies were used for electrophysiological studies. […] A total number of six different isolated cell bodies (six replicates) were used for each experiment.
Deltamethrin and DCJW (IN-JT333), stock solutions (100 mM and 10 mM, respectively) were prepared in dimethylsulphoxide (DMSO, Sigma Chemical, France). Final dilutions contained a maximum of 0.1% DMSO.
Deltamethrin and DCJW, prepared in cockroach saline, were applied separately by a gravity perfusion system onto isolated cell body maintained in short-term culture.
Experiments were carried out at room temperature (20° C.).
The patch-clamp technique in the whole-cell recording configuration (voltage-clamp condition) was used to record voltage-dependent inward sodium current. […]
For each time point, relative sodium current amplitudes are expressed as means±standard errors of the mean (SEM) (table 2). […]
In addition to the concomitant application of deltamethrin and DCJW, the effect of the mixture DCJW (10^−7M) and deltamethrin (10^−5 M) on DUM neuron was assessed after a pre-treatment of the cell body by deltamethrin (10^−5 M) for 5 minutes. […]
As in Example 2, for each time point, relative sodium current amplitudes were expressed as means±standard errors of the mean (SEM). […]

The test system of assay [2] is Rhipicephalus sanguineus ticks. The experiment in a line: Tick control on dogs (experimental infestation, tick counts and efficacy). Format: in vivo. Set-up: Tick efficacies, arithmetic mean / Tick efficacies, geometric mean: concentration or dose not given beside the values. Here is the method:
The SCALIBOR® collar was administered to dogs according to the instructions in the Product leaflet. The topical formulation of indoxacarb was administered to dogs in Groups 3 and 4 according to the dose table below:
A 4% deltamethrin-impregnated collar (SCALIBOR®, Merck Animal Health) is used to protect dogs from the bites of sand flies (Phlebotomus sp.), mosquitoes (Culex sp.), and ticks for up to six months with high persistent efficacy. Immediate efficacy of the collar against fleas is known to be inadequate.
The study was conducted on four groups of eight dogs each. • Group 1: Negative control. • Group 2: Dogs were fitted with the Scalibor® collar on Day 0. • Group 3: Dogs were treated with a topical formulation of indoxacarb on Days 0, 30, 60, 90, 120, 150, and 180 (once a month for 6 months). • Group 4: Dogs were fitted with the Scalibor® collar (4% deltamethrin) on Day 0 and treated with a topical formulation of indoxacarb on Days 0, 30, 60, 90, 120, 150, and 180 (once a month for 6 months). Dogs were experimentally infested with 100 fleas and 50 ticks two days before treatment (Day 0) and then on various days throughout the study.
Efficacy against ticks and fleas was calculated for each treatment group at each assessment day according to the formulas given below. Due to the fact that small and even zero tick and flea counts were recorded, it was expected that the tick and flea counts would not follow a normal distribution. It was therefore decided that the primary efficacy calculations would be based on geometric means rather than arithmetic means. The calculations were based on the geometric means of the tick or flea (count+1) data. One (1) was subsequently subtracted from the result to obtain a meaningful value for the geometric mean of each treatment group. Efficacy calculations based on arithmetic means were, however, also reported on.
Percent efficacy against ticks was calculated as follows:
Efficacy(%)=100×(Gmc−Gmt)/Gmc, where:
Gmc=Geometric or arithmetic mean number of live ticks (categories 1-3) on dogs in the control group (Group 1) at a specific time point. Gmt=Geometric or arithmetic mean number of live ticks (categories 1-3; immediate Day+2 efficacy) and dead attached engorged ticks (category 6; residual >Day+2 efficacies) on dogs in the treatment groups (Groups 2, 3 & 4) at a specific time point.

Where [3] appears, read: DCJW 10^-7 M alone, after 20 minutes.
Setting [4] is: Day +2 (immediate), vs negative control.
Where [5] appears, read: Day +2, count ~48 h after treatment or infestation.
Where [6] appears, read: Day +16, count ~48 h after infestation.
Where [7] appears, read: Day +30, count ~48 h after infestation.
[8] abbreviates: Day +44, count ~48 h after infestation.
Setting [9] is: Day +72, count ~48 h after infestation.
Where [10] appears, read: Day +100, count ~48 h after infestation.
[11] abbreviates: Day +128, count ~48 h after infestation.
Setting [12] is: Day +156, count ~48 h after infestation.
Where [13] appears, read: Day +170, count ~48 h after infestation.
Setting [14] is: Day +184, count ~48 h after infestation.

As for `N#Cc1ccc(CC(=NNC(=O)Nc2ccc(OC(F)(F)F)cc2)c2cccc(C(F)(F)F)c2)cc1` (mixture of isomers) [metaflumizone E/Z, (EZ)-2012-(4-cyanophenyl)-1-(a,a,a-trifluoro-mtolypethylidene]-4 (trifluoromethoxy) carbanilohydrazide], in assay [1] (bath application at different concentrations (10^-10 to 10^-5 M), alone), the “Effect on the sodium current amplitude” value was “produced a reduction of the sodium current amplitude”. The “Dose dependence of the reduction of sodium current amplitude” value in assay [1] (different concentrations (10^-10 to 10^-5 M), alone) was “not dose-dependent”.

As to `COC(=O)C12Cc3cc(Cl)ccc3C1=NN(C(=O)Nc1ccc(OC(F)(F)F)cc1)CO2` (stereo not shown) [DCJW, methyl 7-chloro-2,5-dihydro-2-[[[4-(trifluoromethoxy)phenyl]amino]carbonyl]indeno-[1,2-e][1,3,4]oxadiazine-4a(3H)-carboxylate], in assay [1] (setting [3]), the “Percentage of inhibition of the sodium current amplitude” value is 40.7% and the “Sodium current amplitude (relative to control current 100%)” value was 59.3%.

For `CC1(C)[C@H](C(=O)O[C@H](C#N)c2cccc(Oc3ccccc3)c2)[C@@H]1C=C(Br)Br` [deltamethrin, (S)-α-Cyano-3-phenoxybenzyl-(1R,3R)-3-(2,2-dibromovinyl)-2,2-dimethylcyclopropanecarboxylate], in assay [2] (setting [4]), the “Tick efficacies, geometric mean” value worked out at 76.9%.

As for `COC(=O)N(C(=O)N1CO[C@@]2(C(=O)OC)Cc3cc(Cl)ccc3C2=N1)c1ccc(OC(F)(F)F)cc1` [indoxacarb, (5)-methyl 7-chloro-2,5-dihydro-2-[[(methoxycarbonyl) [4-(trifluoromethoxy)phenyl]amino]carbonyl]indeno[1,2-e][1,3,4]oxadiazine-4a(3H)-carboxylate], the “Tick efficacies, arithmetic mean” value in assay [2] (setting [4]) is recorded as 13.3%; in assay [2] (Day +16, vs negative control), 34.3%; in assay [2] (Day +30, vs negative control), 42.0%; in assay [2] (Day +44, vs negative control), 25.0%; in assay [2] (Day +72, vs negative control) it was 20.0%; in assay [2] (Day +100, vs negative control) it was 35.4%. The “Tick efficacies, arithmetic mean” value in assay [2] (Day +128, vs negative control) is reported as 12.1%; in assay [2] (Day +156, vs negative control), 12.1%; in assay [2] (Day +170, vs negative control), 18.4%; in assay [2] (Day +184, vs negative control), 25.1%. The “Tick efficacies, geometric mean” value is reported as 15.5% in assay [2] (setting [4]); 37.4% in assay [2] (Day +16, vs negative control); 58.7% in assay [2] (Day +30, vs negative control); 25.8% in assay [2] (Day +44, vs negative control); 20.9% in assay [2] (Day +72, vs negative control); 40.9% in assay [2] (Day +100, vs negative control). Further, the “Tick efficacies, geometric mean” value stood at 16.0% in assay [2] (Day +128, vs negative control); 12.2% in assay [2] (Day +156, vs negative control); 20.0% in assay [2] (Day +170, vs negative control); 28.3% in assay [2] (Day +184, vs negative control). Further, the “Tick counts, arithmetic mean” value is 18.8 in assay [2] (setting [5]); 13.8 in assay [2] (setting [6]); 14.0 in assay [2] (setting [7]); 18.4 in assay [2] (setting [8]); 24.5 in assay [2] (setting [9]); 18.3 in assay [2] (setting [10]). The “Tick counts, arithmetic mean” value in assay [2] (setting [11]) came out at 24.5; in assay [2] (setting [12]) it was 25.4; in assay [2] (setting [13]), 21.1; in assay [2] (setting [14]), 18.3. In addition, the “Tick counts, geometric mean” value in assay [2] (setting [5]) is listed as 18.1^4; in assay [2] (setting [6]), 12.1^4; in assay [2] (setting [7]), 9.8^2,4; in assay [2] (setting [8]), 18.0^4; in assay [2] (setting [9]), 23.5^4; in assay [2] (setting [10]) it was 16.0^4. The “Tick counts, geometric mean” value in assay [2] (setting [11]) is 22.6^4; in assay [2] (setting [12]), 25.0^4; in assay [2] (setting [13]), 19.9^4; in assay [2] (setting [14]), 17.1^4. For the same compound, the “Immediate or persistent effectiveness against R. sanguineus ticks” value in assay [2] (Day +2 to Day 184) is reported as “No immediate or persistent effectiveness”.
